Each block holds one compound with its values, some of them ahead of it.
Assays:
[1] = species on record: Rattus norvegicus; experiment: Compound's potency to increase the level of the dopamine metabolite DOPAC levels in male wistar rats at 0.95 ug/g dose; assay type: functional
[2] = biological target: Dopamine receptor (Bos taurus, UniProt Q95136+P20288); experiment: Compound was tested for its ability to displace [3H]spiroperidol from dopamine receptor; assay type: protein assay
[3] = species on record: Rattus norvegicus; experiment: Compound's potency to increase the level of the dopamine metabolite homovanillic acid (HVA), levels in male wistar rats at 0.54 ug/g dose; assay type: functional
[4] = species on record: Rattus norvegicus; experiment: Compound's potency to increase the level of the dopamine metabolite homovanillic acid (HVA), levels in male wistar rats at 1.10 ug/g dose; assay type: functional
[5] = species on record: Rattus norvegicus; experiment: Compound's potency to increase the level of the dopamine metabolite DOPAC levels in male wistar rats at 1.26 ug/g dose; assay type: functional
[6] = species on record: Rattus norvegicus; experiment: Compound's potency to increase the level of the dopamine metabolite homovanillic acid (HVA), levels in male wistar rats at 0.39 ug/g dose; assay type: functional
[7] = species on record: Rattus norvegicus; experiment: Compound's potency to increase the level of the dopamine metabolite DOPAC levels in male wistar rats at 0.62 ug/g dose; assay type: functional
[8] = species on record: Rattus norvegicus; experiment: Compound's potency to increase the level of the dopamine metabolite DOPAC levels in male wistar rats at 0.73 ug/g dose; assay type: functional
[9] = species on record: Rattus norvegicus; experiment: Compound's potency to increase the level of the dopamine metabolite homovanillic acid (HVA), levels in male wistar rats at 0.44 ug/g dose; assay type: functional
[10] = species on record: Rattus norvegicus; experiment: Compound's potency to increase the level of the dopamine metabolite DOPAC levels in male wistar rats at 0.6 ug/g dose; assay type: functional
[11] = species on record: Rattus norvegicus; experiment: Compound's potency to increase the level of the dopamine metabolite homovanillic acid (HVA), levels in male wistar rats at 0.63 ug/g dose; assay type: functional
[12] = species on record: Rattus norvegicus; experiment: Compound's potency to increase the level of the dopamine metabolite DOPAC levels in male wistar rats at 1.15 ug/g dose; assay type: functional

SMILES: CN(C)C1CCN2c3cc(Cl)ccc3Sc3cccc1c32 (stereo not given)
Control [6]: 88% | Control [7]: 98%

SMILES: CN(C)C1CCN2c3ccccc3Sc3ccc(Cl)c1c32 (stereo not given)
Control [8]: 115% | Control [9]: 100%

SMILES: CN(C)C1CCN2c3ccccc3Sc3cccc1c32 (stereo not given)
Control [10]: 95% | Control [9]: 93%

Further lines, with some results ahead:

IC50 [2]: 13000 nM
SMILES: CN(C)CC1Cc2cccc3c2N(C1)c1cc(Cl)ccc1S3 (stereo not given)
Control [1]: 89% | Control [3]: 70%

IC50 [2]: 1200 nM
SMILES: CN(C)CC1Cc2c(Cl)ccc3c2N(C1)c1ccccc1S3 (stereo not given)
Control [4]: 157% | Control [5]: 118%

IC50 [2]: 0.0014 nM
SMILES: CN(C)CC1Cc2cccc3c2N(C1)c1ccccc1S3 (stereo not given)
Control [11]: 90% | Control [12]: 107%

— ChEMBL document CHEMBL1121931, “Synthesis and pharmacological evaluation of conformationally restricted phenothiazine analogues” (J Med Chem, 1982)
